Test results published in PMC5762535, “Novel indazole-based small compounds enhance TRAIL-induced apoptosis by inhibiting the MKK7-TIPRL interaction in hepatocellular carcinoma” (Oncotarget, 2017).
Like-named read-outs stand apart in the source and are kept apart here. One block for each molecule: values may come before it.

What was measured:
[1] = MTT cell viability assay, Huh7 cells; format: cell-based, human; conditions: human, Huh7 cells, without TRAIL; for viability: MTT, Supplementary Table 2, read-out: Cell viability assay (%) Compound only
Experimental: (§1) Cell viability was assessed using a 3-(4,5-dimethylthiazol-2-yl)-2,5-diphenyltetrazolium bromide (MTT, Sigma-Aldrich, St. Louis, USA) assay. The cells were seeded at a density of 1 × 10^4 cells per well and treated with the lead compounds and/or TRAIL. After 24 or 48 h, MTT (2 mg/ml) was added to each well, and the absorbance was measured using a microplate reader (Bio-Rad, Hercules, USA) at 570 nm. The cell viability was calculated as the percentage of viable cells in the drug-treated group versus the untreated control using the following equation: cell viability (%) = [OD (drug)-OD (blank)]/[OD (control)-OD (blank)] × 100.

[2] = target: T1, MKK7-TIPRL interaction (Homo sapiens, UniProt O14733+O75663); assay: ELISA of the MKK7-TIPRL interaction; format: binding; design: The full-length cDNAs of human TIPRL and MKK7 were provided by the Korea Human Gene Bank; His; made in house
T1 sequence (O14733 1-419): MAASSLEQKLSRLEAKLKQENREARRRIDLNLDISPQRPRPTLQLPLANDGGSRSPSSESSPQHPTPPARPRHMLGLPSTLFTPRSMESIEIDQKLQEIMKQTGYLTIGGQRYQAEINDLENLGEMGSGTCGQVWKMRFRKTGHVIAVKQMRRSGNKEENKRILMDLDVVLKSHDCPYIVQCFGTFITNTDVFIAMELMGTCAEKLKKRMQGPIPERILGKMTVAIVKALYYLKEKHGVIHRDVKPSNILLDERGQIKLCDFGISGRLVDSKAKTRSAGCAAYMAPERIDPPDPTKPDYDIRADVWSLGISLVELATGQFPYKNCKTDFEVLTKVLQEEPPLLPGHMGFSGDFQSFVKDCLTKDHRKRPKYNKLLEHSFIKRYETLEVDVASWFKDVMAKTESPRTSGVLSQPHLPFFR
T1 sequence (O75663 1-272): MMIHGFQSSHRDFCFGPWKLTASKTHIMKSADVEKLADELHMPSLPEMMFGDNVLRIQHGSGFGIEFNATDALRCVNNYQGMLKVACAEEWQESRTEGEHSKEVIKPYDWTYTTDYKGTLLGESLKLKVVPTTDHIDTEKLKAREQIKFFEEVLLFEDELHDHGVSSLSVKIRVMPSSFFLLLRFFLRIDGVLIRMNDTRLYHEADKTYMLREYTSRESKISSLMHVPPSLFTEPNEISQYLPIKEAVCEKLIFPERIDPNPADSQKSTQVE
From the text: The full-length cDNAs of human TIPRL and MKK7 were provided by the Korea Human Gene Bank (Korea Research Institute of Biosciences and Biotechnology, South Korea). TIPRL and MKK7 were subcloned into the pET21a vector (purchased from Novagen, San Diego, CA) and the pEBG vector containing a GST tag (kindly provided by Y. Liu, National Institute on Aging, National Institutes of Health) to construct the His-tagged and the GST-tagged plasmids, respectively. Purified TIPRL was conjugated with horseradish peroxidase (HRP). To screen chemical compounds using HTS, an ELISA system that detected the TIPRL and MKK7 interaction was constructed. Briefly, 96-well ELISA plates were coated with GST-MKK7 dissolved in PBS-T buffer (PBS containing 0.05% Tween-20 and 0.5% BSA), followed by the addition of 100 μl of TIPRL-HRP dissolved in PBS-T buffer. After 1 h, 100 μl of tetramethylbenzidine (TMB) solution was added to each well and the absorbance was read at 450 nm.

[3] = system: Huh7 cells; assay: MTT cell viability assay, Huh7 cells; format: cell-based, human; conditions: for effect on cell viability / cell death of Huh7 cells in the presence of TRAIL: MTT, co-treatment with TRAIL
Experimental: as §1

[4] = system: caspase-3; assay: Caspase 3 activity assay in Huh7 cells; format: cell-based, human; conditions: for Caspase 3 activity Compound + TRAIL/Compound: each compound at its working concentration and time of the table
Experimental: The caspase 3 activity was measured using a caspase-3 luminescent assay kit (Promega, Madison, WI, USA), according to the manufacturer's instructions, and a luminescence plate reader (Molecular Devices Co., Sunnyvale, USA).

[5] = system: HepG2 cells; assay: MTT cell viability assay, HepG2 cells; format: cell-based, human; conditions: 10 µM TRT-0029 or 20 µM TRT-0173 plus TRAIL 100 ng/ml, 24 h
Experimental: as §1

[6] = system: Huh7 tumor xenografts; assay: In vivo Huh7 xenograft assay; design: species or system BALB/c nude mice
From the text: Five-week-old female BALB/c nude mice were purchased from SLC Japan and were maintained in accordance with the guidelines of the Institutional Review Committee for Animal Care and Use of the Korea Research Institute of Bioscience and Biotechnology. Protocol approval was obtained from the same committee.
Huh7 cells were harvested and subcutaneously injected (5 × 10^6 cells/mouse) into nude mice (N = 6/group for TRT-0173 or TRT-0029 experiments). When the tumor volume reached ~100 mm^3, the mice were divided into four groups and treated with vehicle, TRAIL (2.5 mg/kg, intraperitoneal), lead compound (TRT-0029 or TRT-0173, 30 mg/kg, intravenously), or lead compound (30 mg/kg, intravenously) combined with TRAIL (2.5 mg/kg, intraperitoneal) daily for 11 days (11 treatments in total). The tumor volumes were measured every 2 days for 11 days after treatment, and tumor volume was calculated according to the following equation: V (mm^3) = width^2 (mm^2) × length (mm)/2. Body weight and tumor mass were measured 11 days after treatment.

[7] = Pharmacokinetics in rats; format: in vivo, Sprague-Dawley rats; conditions: rat; for AUC: male, Sprague-Dawley, plasma, after 24 h
Experimental: Male Sprague-Dawley rats anesthetized with ketamine were cannulated with polyethylene tubing in the femoral vein. A solution of lead compound (TRT-0029 or TRT-0173) was prepared by dissolving the compounds in a mixture of dimethyl sulfoxide (DMSO)/ polyethylene glycol 400 (PEG 400)/ distilled water (0.5: 4: 5.5), and was administered to rats by a bolus injection in the femoral vein. Blood samples were collected via the femoral vein 0, 2, 10, and 30 min, as well as 1, 2, 4, 6, 8, and 24 h after intravenous administration. For oral administration, blood was collected 0.25, 0.5, 1, 2, 4, 6, 8, and 24 h after treatment. The plasma fractions were prepared by centrifugation and were stored at −70°C before the liquid chromatography-tandem mass spectrometry (LC/MS/MS) analysis. The concentrations of target compound in the plasma were measured using LC-MS/MS (4000 QTRAP, AB SCIEX, Foster City, CA) in multiple reaction monitoring (MRM) mode. The PK parameters were determined with non-compartmental methods using Phoenix WinNolin (Pharsight, Mountain View, CA). The area under the plasma concentration-time curve (AUC) was calculated using the trapezoidal rule extrapolated to infinity. The terminal elimination half-life (t1/2), and the systemic clearance (CL) were obtained. The peak plasma concentration (Cmax) after oral administration was obtained by visual inspection of the plasma concentration-time plot of each rat.

[8] = target: T1, MKK7-TIPRL interaction; assay: GST pull-down assay of MKK7-TIPRL in 293T cells; format: cell-based; conditions: 10 μM TRT-0029 or 20 μM TRT-0173, 24 h
Experimental: The full-length cDNAs of human TIPRL and MKK7 were subcloned into the pCGN vector (W. Herr, Cold Spring Harbor Laboratory) and the pEBG vector containing a GST tag to construct the HA-tagged and the GST-tagged plasmids, respectively. 293T cells were transfected with expression vector constructs using the TurboFect Transfection Reagent (Thermo Fisher Scientific, Lafayette, USA) and then were lysed in RIPA buffer (50 mM Tris-HCl, 150 mM NaCl, 1% Triton™ X-100, 0.1% SDS, 1 mM EDTA, 1 mM Na3VO4, and 1 mM NaF) containing complete protease inhibitor cocktail (Roche Applied Science, Indianapolis, USA). Whole-cell extracts were incubated with Glutathione Sepharose 4B (GE Healthcare, Uppsala, Sweden), and the eluted GST-tagged proteins were subjected to Western blotting using the indicated antibodies.

[9] = system: caspase-3 and PARP; assay: Western blot of cleaved caspase-3 and PARP in Huh7 cells; format: cell-based, human; conditions: lead compounds co-treated with TRAIL 100 ng/ml, TRAIL tested alone
Experimental: The cells were lysed in lysis buffer (50 mM Tris-HCl, pH 7.4, 150 mM NaCl, 1% Triton™ X-100, 0.1% SDS, 1 mM EDTA, 1 mM Na3VO4, 1 mM NaF, and protease inhibitor cocktail) and clarified by centrifugation at 14,000×g for 20 min at 4°C. The protein samples were then subjected to Western blotting with the indicated antibodies.

[10] = hit compounds from the in-house library, Supplementary Table 2, read-out: ELISA IC50

Molecule: CC(=O)c1cc(-n2ncc3cc(NS(=O)(=O)c4ccccc4)ccc32)c(Cl)cc1Cl [Compound 3]
viability [1]: 42%
IC50 [2, 10]: 1700 nM

Molecule: Nc1ccc2[nH]ncc2c1 [Compound 5]
viability [1]: 81%
IC50 [2, 10]: 1400 nM

Molecule: O=Cc1cc([N+](=O)[O-])ccc1F [Compound 6]
viability [1]: 93%
IC50 [2, 10]: 2000 nM

Molecule: CC(=O)c1cc(-n2ncc3cc(N)ccc32)c(Cl)cc1Cl [TRT-0002]
viability at 40 µM ([3]; Homo sapiens, Huh-7, Huh7, MTT, 40 µM, 48 hrs, with TRAIL, Supplementary Table 3, read-out: Cell viability assay Compound + TRAIL): 29%
effect on cell viability / cell death of Huh7 cells in the presence of TRAIL [3]: significantly enhanced TRAIL-induced cell death
effect on cell viability / cell death of Huh7 cells in the presence of TRAIL ([3]; listed as 16): synergetic effect
viability at 48 h, 40 µM ([1]; Huh7, MTT, 40 µM, 48 hrs, Supplementary Table 3, read-out: Cell viability assay Compound only): 81%
viability [1]: 80%
Caspase 3 activity Compound + TRAIL/Compound [4]: 1.80 ratio
IC50 [2, 10]: 1000 nM
IC50 ([2]; newly synthesized TRT-0002, ELISA, read-out: IC50 to inhibit the MKK7-TIPRL interaction): 1400 nM

B1: TRAIL: human TRAIL protein, member of the TNF superfamily, used as co-treatment (protein, UniProt P50591 1-281, looked up)
Tumor necrosis factor ligand …: MAMMEVQGGPSLGQTCVLIVIFTVLLQSLCVAVTYVYFTNELKQMQDKYSKSGIACFLKEDDSYWDPNDEESMNSPCWQVKWQLRQLVRKMILRTSEETISTVQEKQQNISPLVRERGPQRVAAHITGTRGRSNTLSSPNSKNEKALGRKINSWESSRSGHSFLSNLHLRNGELVIHEKGFYYIYSQTYFRFQEEIKENTKNDKQMVQYIYKYTSYPDPILLMKSARNSCWSKDAEYGLYSIYQGGIFELKENDRIFVSVTNEHLIDMDHEASFFGAFLVG
anti-cancer effects of TRAIL alone in vivo ([6]; 5 and 2.5 mg/kg, data not shown): dose-dependent anti-cancer effects
reduction of average tumor mass, TRAIL alone ([6]; TRAIL 2.5 mg/kg i.p. daily for 11 days): 24.8%
apoptosis signals (cleaved caspase-3, PARP) by Western blotting [9]: did not activate caspase-3

Now from value to molecule, other results behind:

IC50 [2, 10]: 89 nM
Molecule: COc1ccc(S(=O)(=O)Nc2ccc3c(cnn3-c3ccc(F)cc3)c2)cc1 [Compound 4]
viability [1]: 86%

IC50 [2, 10]: 8900 nM
Molecule: O=[N+]([O-])c1ccc(F)c(/C=N/Nc2ccc(F)cc2)c1 [Compound 7]
viability [1]: 89%

IC50 [2, 10]: 2800 nM
Molecule: O=[N+]([O-])c1ccc2c(cnn2-c2ccc(F)cc2)c1 [Compound 8]
viability [1]: 69%

IC50 [2, 10]: 1000 nM
Molecule: Nc1ccc2c(cnn2-c2ccc(F)cc2)c1 [Compound 9]
viability [1]: 90%

IC50 [2, 10]: 3500 nM
Molecule: CC(=O)c1cc(-n2cc3cc(N)ccc3n2)c(Cl)cc1Cl [Compound 10]
viability [1]: 111%

AUC ([7]; iv, i.v. 5 mg/kg, read-out: AUC (i.v.)): 10000 ng·h/mL
AUC ([7]; po, p.o. 5 mg/kg, read-out: AUC (p.o.)): 1220 ng·h/mL
oral availability ([7]; 5 mg/kg i.v. and p.o.): 11%
interaction between MKK7 and TIPRL in GST pull-down assay, compared with untreated cells [8]: significantly decreased the interaction
Molecule: CC(=O)c1cc(-n2ncc3cc(NS(=O)(=O)c4ccccc4)ccc32)c(Cl)cc1Cl [TRT-0029]
decrease of HepG2 viability by co-treatment with TRAIL [5]: 36%
tumor volume / tumor growth at 11 days, compound + TRAIL compared with compound alone ([6]; compound 30 mg/kg i.v. plus TRAIL 2.5 mg/kg i.p. daily): significantly reduced
reduction of average tumor mass, lead compound + TRAIL ([6]; compound 30 mg/kg i.v. plus TRAIL 2.5 mg/kg i.p. daily for 11 days, versus vehicle control): 64.5%
reduction of cell viability of Huh7 cells by co-treatment with TRAIL, compared to TRAIL alone ([3]; 10 μM TRT-0029 or 20 μM TRT-0173 plus TRAIL, 24 h): ~90%
viability at 10 µM ([3]; Homo sapiens, Huh-7, Huh7, MTT, 10 µM, 24 hrs, with TRAIL, Supplementary Table 3, read-out: Cell viability assay Compound + TRAIL): 11%
effective working concentration ([3]; Huh7 cells, various doses with and without TRAIL (100 ng/ml), 24 h): 10 µM
viability at 24 h, 10 µM ([1]; Huh7, MTT, 10 µM, 24 hrs, Supplementary Table 3, read-out: Cell viability assay Compound only): 69%
activity of caspase-3, co-treatment with TRAIL compared to compound alone or TRAIL alone ([4]; Huh7, 24 h): significantly increased
Caspase 3 activity Compound + TRAIL/Compound [4]: 2.20 ratio
apoptosis signals (cleaved caspase-3, PARP) by Western blotting [9]: effectively activated apoptosis signals
